Assay results reported in patent US8198273B2, “Compounds and methods for kinase modulation, and indications therefor” (Plexxikon Inc., priority 2009, dated 2012).

The compounds below were run against CYP2C19 (Homo sapiens, UniProt P33261) (assay: CYP2C19 inhibition (fluorescent substrate)). Details: CYP2C19, CEC substrate; read-out: Cyp IC50 2C19.
Assay type: in vitro ADME
Protocol: CYP (Cytochrome P450) enzymes are the major drug metabolizing enzymes present in the liver. The inhibition of CYP enzyme activity (IC50) for each of CYP1A2, CYP2C19, CYP2C9, CYP2D6, CYP3A4(BFC) and CYP3A4(BQ) is determined for compounds, where inhibition of metabolism of a known substrate leads to a decrease in the fluorescence of the metabolized product. The fluorescence of the product is monitored as a function of compound concentration.
Compounds are dissolved in dimethyl sulfoxide to a concentration of 100 mM. These are diluted 1 μL into 82 μL of acetonitrile. […] These are then serially diluted 1:1 (160 μL to 160 μL co-factor mix) for a total of 10 points. A 10 μL aliquot of this final mixture is dispensed into 384 well assay plates and incubated for 10 minutes at 37° C. […] Assay plates are incubated at 37° C. […] The signal versus compound concentration is used to determine the IC50. The enzymes and substrates for this assay are obtained from BD Biosciences.

Sequence of CYP2C19 (P33261 whole entry): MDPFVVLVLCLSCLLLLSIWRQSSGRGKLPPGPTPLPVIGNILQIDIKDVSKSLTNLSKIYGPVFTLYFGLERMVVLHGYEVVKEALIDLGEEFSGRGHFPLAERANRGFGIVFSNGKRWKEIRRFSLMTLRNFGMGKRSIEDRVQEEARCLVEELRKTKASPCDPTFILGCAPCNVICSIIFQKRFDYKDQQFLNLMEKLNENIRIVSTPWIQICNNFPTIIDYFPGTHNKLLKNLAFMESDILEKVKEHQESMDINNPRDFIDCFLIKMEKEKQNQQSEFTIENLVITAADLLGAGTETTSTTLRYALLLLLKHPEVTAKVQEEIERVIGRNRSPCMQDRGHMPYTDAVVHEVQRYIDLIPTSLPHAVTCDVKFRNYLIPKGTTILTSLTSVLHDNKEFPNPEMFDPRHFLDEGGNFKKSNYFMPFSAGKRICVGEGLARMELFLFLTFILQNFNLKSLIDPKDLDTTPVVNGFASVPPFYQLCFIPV

Row | SMILES | IC50 [µM]
1 | CCCS(=O)(=O)Nc1ccc(F)c(C(=O)c2c[nH]c3ncc(-c4ccc(NC(C)=O)nc4)cc23)c1F [P-2193, N-(5-{3-[2,6-Difluoro-3-(propane-1-sulfonylamino)-benzoyl]-1H-pyrrolo[2,3-b]pyridin-5-yl}-pyridin-2-yl)-acetamide] | 5 to 10
2 | COc1ncc(-c2cnc3[nH]cc(C(=O)c4c(F)ccc(NS(=O)(=O)c5c(F)cccc5F)c4F)c3c2)cn1 [P-2043, N-{2,4-Difluoro-3-[5-(2-methoxy-pyrimidin-5-yl)-1H-pyrrolo[2,3-b]pyridine-3-carbonyl]-phenyl}-2,6-difluoro-benzenesulfonamide] | > 10
3 | CCCS(=O)(=O)Nc1ccc(F)c(C(=O)c2c[nH]c3ncc(-c4cn[nH]c4)cc23)c1F [P-2174, Propane-1-sulfonic acid {2,4-difluoro-3-[5-(1H-pyrazol-4-yl)-1H-pyrrolo[2,3-b]pyridine-3-carbonyl]-phenyl}-amide] | 5 to 10
4 | CCCS(=O)(=O)Nc1ccc(F)c(C(=O)c2c[nH]c3ncc(-c4cnc(OC)nc4OC)cc23)c1F [P-2199, Propane-1-sulfonic acid {3-[5-(2,4-dimethoxy-pyrimidin-5-yl)-1H-pyrrolo[2,3-b]pyridine-3-carbonyl]-2,4-difluoro-phenyl}-amide] | > 10
5 | CCCS(=O)(=O)Nc1ccc(F)c(C(=O)c2c[nH]c3ncc(-c4ccc(C#CCN(CC)CC)nc4)cc23)c1F [P-2222, Propane-1-sulfonic acid (3-{5-[6-(3-diethylamino-prop-1-ynyl)-pyridin-3-yl]-1H-pyrrolo[2,3-b]pyridine-3-carbonyl}-2,4-difluoro-phenyl)-amide] | < 5
6 | CCCS(=O)(=O)Nc1ccc(F)c(C(=O)c2c[nH]c3ncc(-c4ccc(C)nc4)cc23)c1F [P-2213, Propane-1-sulfonic acid {2,4-difluoro-3-[5-(6-methyl-pyridin-3-yl)-1H-pyrrolo[2,3-b]pyridine-3-carbonyl]-phenyl}-amide] | > 10
7 | N#Cc1cnc2[nH]cc(C(=O)c3cccc(NS(=O)(=O)c4cccc(F)c4)c3F)c2c1 [P-2053, N-[3-(5-Cyano-1H-pyrrolo[2,3-b]pyridine-3-carbonyl)-2-fluoro-phenyl]-3-fluoro-benzenesulfonamide] | > 10
8 | CCCS(=O)(=O)Nc1ccc(F)c(C(=O)c2c[nH]c3ncc(-c4ccc(CCCOC)nc4)cc23)c1F [P-2226, Propane-1-sulfonic acid (2,4-difluoro-3-{5-[6-(3-methoxy-propyl)-pyridin-3-yl]-1H-pyrrolo[2,3-b]pyridine-3-carbonyl}-phenyl)-amide] | > 10
9 | CCCS(=O)(=O)Nc1ccc(F)c(C(=O)c2c[nH]c3ncc(-c4cnc(N5CCOCC5)nc4)cc23)c1F [P-2197, Propane-1-sulfonic acid {2,4-difluoro-3-[5-(2-morpholin-4-yl-pyrimidin-5-yl)-1H-pyrrolo[2,3-b]pyridine-3-carbonyl]-phenyl}-amide] | > 10
10 | CCCS(=O)(=O)Nc1ccc(F)c(C(=O)c2c[nH]c3ncc(-c4ccc(C(=O)NCC)nc4)cc23)c1F [P-2151, 5-{3-[2,6-Difluoro-3-(propane-1-sulfonylamino)-benzoyl]-1H-pyrrolo[2,3-b]pyridin-5-yl}-pyridine-2-carboxylic acid ethylamide] | > 10
11 | COc1ccnc2[nH]cc(C(=O)c3c(F)ccc(NS(=O)(=O)c4c(F)cccc4F)c3F)c12 [P-2031, N-[2,4-Difluoro-3-(4-methoxy-1H-pyrrolo[2,3-b]pyridine-3-carbonyl)-phenyl]-2,6-difluoro-benzenesulfonamide] | > 10
12 | CCCS(=O)(=O)Nc1ccc(F)c(C(=O)c2c[nH]c3ncc(-c4ccc(N)nc4)cc23)c1F [P-2214, Propane-1-sulfonic acid {3-[5-(6-amino-pyridin-3-yl)-1H-pyrrolo[2,3-b]pyridine-3-carbonyl]-2,4-difluoro-phenyl}-amide] | 5 to 10
13 | N#Cc1cnc2[nH]cc(C(=O)c3cccc(NS(=O)(=O)c4c(F)cccc4F)c3F)c2c1 [P-2054, N-[3-(5-Cyano-1H-pyrrolo[2,3-b]pyridine-3-carbonyl)-2-fluoro-phenyl]-2,6-difluoro-benzenesulfonamide] | > 10
14 | CCCS(=O)(=O)Nc1ccc(F)c(C(=O)c2c[nH]c3ncc(-c4cnc(N5CCCC5)nc4)cc23)c1F [P-2219, Propane-1-sulfonic acid {2,4-difluoro-3-[5-(2-pyrrolidin-1-yl-pyrimidin-5-yl)-1H-pyrrolo[2,3-b]pyridine-3-carbonyl]-phenyl}-amide] | < 5
15 | CCCS(=O)(=O)Nc1ccc(F)c(C(=O)c2c[nH]c3ncc(-c4ccc(F)nc4)cc23)c1F [P-2155, Propane-1-sulfonic acid {2,4-difluoro-3-[5-(6-fluoro-pyridin-3-yl)-1H-pyrrolo[2,3-b]pyridine-3-carbonyl]-phenyl}-amide] | 5 to 10
16 | N#Cc1cnc2[nH]cc(C(=O)c3c(F)ccc(NS(=O)(=O)c4cccnc4)c3F)c2c1 [P-2072, Pyridine-3-sulfonic acid [3-(5-cyano-1H-pyrrolo[2,3-b]pyridine-3-carbonyl)-2,4-difluoro-phenyl]-amide] | > 10
17 | N#Cc1cnc2[nH]cc(C(=O)c3cccc(NS(=O)(=O)c4ccccc4F)c3F)c2c1 [P-2051, N-[3-(5-Cyano-1H-pyrrolo[2,3-b]pyridine-3-carbonyl)-2-fluoro-phenyl]-2-fluoro-benzenesulfonamide] | > 10
18 | CCCS(=O)(=O)Nc1ccc(F)c(C(=O)c2c[nH]c3ncc(-c4ccc(C(=O)NC)nc4)cc23)c1F [P-2180, 5-{3-[2,6-Difluoro-3-(propane-1-sulfonylamino)-benzoyl]-1H-pyrrolo[2,3-b]pyridin-5-yl}-pyridine-2-carboxylic acid methylamide] | 5 to 10
19 | O=C(c1c(F)ccc(NS(=O)(=O)c2c(F)cccc2F)c1F)c1c[nH]c2nccc(Cl)c12 [P-2033, N-[3-(4-Chloro-1H-pyrrolo[2,3-b]pyridine-3-carbonyl)-2,4-difluoro-phenyl]-2,6-difluoro-benzenesulfonamide] | > 10
20 | CCCS(=O)(=O)Nc1ccc(F)c(C(=O)c2c[nH]c3ncc(-c4ccc(S(C)(=O)=O)cc4)cc23)c1F [P-2183, Propane-1-sulfonic acid {2,4-difluoro-3-[5-(4-methanesulfonyl-phenyl)-1H-pyrrolo[2,3-b]pyridine-3-carbonyl]-phenyl}-amide] | 5 to 10
21 | CCCS(=O)(=O)Nc1ccc(F)c(C(=O)c2c[nH]c3ncc(-c4ccc(OC)nc4OC)cc23)c1F [P-2184, Propane-1-sulfonic acid {3-[5-(2,6-dimethoxy-pyridin-3-yl)-1H-pyrrolo[2,3-b]pyridine-3-carbonyl]-2,4-difluoro-phenyl}-amide] | > 10
22 | CCCS(=O)(=O)Nc1ccc(F)c(C(=O)c2c[nH]c3ncc(-c4cncc(S(C)(=O)=O)c4)cc23)c1F [P-2188, Propane-1-sulfonic acid {2,4-difluoro-3-[5-(5-methanesulfonyl-pyridin-3-yl)-1H-pyrrolo[2,3-b]pyridine-3-carbonyl]-phenyl}-amide] | > 10
23 | N#Cc1cnc2[nH]cc(C(=O)c3c(F)ccc(NS(=O)(=O)c4c(F)cccc4F)c3F)c2c1 [P-2029, N-[3-(5-Cyano-1H-pyrrolo[2,3-b]pyridine-3-carbonyl)-2,4-difluoro-phenyl]-2,6-difluoro-benzenesulfonamide] | > 10
24 | CCCS(=O)(=O)Nc1ccc(F)c(C(=O)c2c[nH]c3ncc(-c4cnn(CCN5CCOCC5)c4)cc23)c1F [P-2177, Propane-1-sulfonic acid (2,4-difluoro-3-{5-[1-(2-morpholin-4-yl-ethyl)-1H-pyrazol-4-yl]-1H-pyrrolo[2,3-b]pyridine-3-carbonyl}-phenyl)-amide] | 5 to 10
25 | CCCS(=O)(=O)Nc1ccc(F)c(C(=O)c2c[nH]c3ncc(-c4ccc(S(N)(=O)=O)cc4)cc23)c1F [P-2194, 4-{3-[2,6-Difluoro-3-(propane-1-sulfonylamino)-benzoyl]-1H-pyrrolo[2,3-b]pyridin-5-yl}-benzenesulfonamide] | > 10
26 | CCCS(=O)(=O)Nc1ccc(F)c(C(=O)c2c[nH]c3ncc(-c4cccc(S(C)(=O)=O)c4)cc23)c1F [P-2228, Propane-1-sulfonic acid {2,4-difluoro-3-[5-(3-methanesulfonyl-phenyl)-1H-pyrrolo[2,3-b]pyridine-3-carbonyl]-phenyl}-amide] | > 10
27 | COc1ncc(-c2cnc3[nH]cc(C(=O)c4c(F)ccc(NS(=O)(=O)c5ccccc5F)c4F)c3c2)cn1 [P-2041, N-{2,4-Difluoro-3-[5-(2-methoxy-pyrimidin-5-yl)-1H-pyrrolo[2,3-b]pyridine-3-carbonyl]-phenyl}-2-fluoro-benzenesulfonamide] | > 10
28 | CCCS(=O)(=O)Nc1ccc(F)c(C(=O)c2c[nH]c3ncc(-c4cnc(SC)nc4)cc23)c1F [P-2189, Propane-1-sulfonic acid {2,4-difluoro-3-[5-(2-methylsulfanyl-pyrimidin-5-yl)-1H-pyrrolo[2,3-b]pyridine-3-carbonyl]-phenyl}-amide] | 5 to 10
29 | N#Cc1cnc2[nH]cc(C(=O)c3cccc(NS(=O)(=O)c4cc(F)ccc4F)c3F)c2c1 [P-2052, N-[3-(5-Cyano-1H-pyrrolo[2,3-b]pyridine-3-carbonyl)-2-fluoro-phenyl]-2,5-difluoro-benzenesulfonamide] | > 10
30 | CCCS(=O)(=O)Nc1ccc(F)c(C(=O)c2c[nH]c3ncc(-c4ccc(Cl)nc4)cc23)c1F [P-2154, Propane-1-sulfonic acid {3-[5-(6-chloro-pyridin-3-yl)-1H-pyrrolo[2,3-b]pyridine-3-carbonyl]-2,4-difluoro-phenyl}-amide] | 5 to 10
